The assay has as its system Plasmodium falciparum. Briefly: Antimalarial activity against Plasmodium falciparum 3D7. Format: functional, organism-based.

8 molecules from ChEMBL document CHEMBL1139741, “Synthesis of 1,2,4-trioxepanes via application of thiol-olefin co-oxygenation methodology” (Bioorg Med Chem Lett, 2006) can be followed below.

For the molecule `CC1(CSc2ccc(Cl)cc2)COC2(CCCC2)OO1` (stereo not drawn), the midpoint of inhibition, the IC50, lay at 110 nM.
For `CC1(CS(=O)(=O)c2ccc(Cl)cc2)CCOC2(CCCCC2)OO1` (stereo not drawn) the value was more than 1000 nM; for `CC1(CS(=O)(=O)c2ccc(Cl)cc2)CCOC(=C2C3CC4CC(C3)CC2C4)OO1` (stereo not drawn), more than 1000 nM; for `COC(=O)/C=C/C1(C)CCOC(=C2C3CC4CC(C3)CC2C4)OO1` (stereo not drawn), more than 1000 nM.
For `CC1(CS(=O)(=O)c2ccc(Cl)cc2)COC(=C2C3CC4CC(C3)CC2C4)OO1` (stereo not drawn) the value was 189 nM; for `CC1(CS(=O)(=O)c2ccc(Cl)cc2)COC2(CCCCC2)OO1` (stereo not drawn), 137 nM.
For `CC1(CS(=O)(=O)c2ccc(Cl)cc2)COC2(CCCC2)OO1` (stereo not drawn) the value was 99.8 nM; for `CC1(CS(=O)(=O)c2ccc(Cl)cc2)CCOC2(CCCC2)OO1` (stereo not drawn), more than 1000 nM.
